The results in this text go back to PubChem BioAssay AID1259407 (Chemical Carcinogenesis Research Information System (CCRIS), 2018).

The test system of this series is CCRIS mutagenicity, Ames/micronucleus/aberration tests. As to the kind of experiment: CCRIS mutagenicity studies.
Setting [1] is: Test System: AMES SALMONELLA TYPHIMURIUM, Strain/Indicator: TA98, Metabolic Activation: NONE, Method: STANDARD PLATE.
Where [2] appears, read: Test System: AMES SALMONELLA TYPHIMURIUM, Strain/Indicator: TA98, Metabolic Activation: S-9, Method: STANDARD PLATE.
[3] abbreviates: Test System: AMES SALMONELLA TYPHIMURIUM, Strain/Indicator: TA100, Metabolic Activation: NONE, Method: STANDARD PLATE.
Where [4] appears, read: Test System: AMES SALMONELLA TYPHIMURIUM, Strain/Indicator: TA100, Metabolic Activation: RAT, LIVER, S-9, AROCLOR 1254, Method: STANDARD PLATE.
Where [5] appears, read: Test System: AMES SALMONELLA TYPHIMURIUM, Strain/Indicator: TA1535, Metabolic Activation: NONE, Method: STANDARD PLATE.
Where [6] appears, read: Test System: AMES SALMONELLA TYPHIMURIUM, Strain/Indicator: TA1537, Metabolic Activation: NONE, Method: STANDARD PLATE.

Molecules are shown by their SMILES. Active and inactive are the calls of the source. The rule behind the calls is not given here.

For `O=Cc1ccco1`, the mutagenic call by setting is: (Test System: AMES SALMONELLA TYPHIMURIUM, Strain/Indicator: TA97, Metabolic Activation: NONE, Method: PREINCUBATION) “inactive; negative”; (Test System: AMES SALMONELLA TYPHIMURIUM, Strain/Indicator: TA97, Metabolic Activation: RAT, LIVER, S-9, AROCLOR 1254, Method: PREINCUBATION) “inactive; negative”; (Test System: AMES SALMONELLA TYPHIMURIUM, Strain/Indicator: TA98, Metabolic Activation: HAMSTER, LIVER, S-9, AROCLOR 1254 (10%), Method: PREINCUBATION) “inactive; negative”; (Test System: AMES SALMONELLA TYPHIMURIUM, Strain/Indicator: TA98, Metabolic Activation: HAMSTER, LIVER, S-9, AROCLOR 1254, Method: PREINCUBATION) “inactive; negative”; under setting [1], “inactive; negative”; (Test System: AMES SALMONELLA TYPHIMURIUM, Strain/Indicator: TA98, Metabolic Activation: RAT LIVER S-9, PHENOBARBITAL AND BETA-NAPHTHOFLAVONE, Method: PREINCUBATION) “inactive; negative”. In addition, the mutagenic call was “inactive; negative” (Test System: AMES SALMONELLA TYPHIMURIUM, Strain/Indicator: TA98, Metabolic Activation: RAT, LIVER, S-9, AROCLOR 1254 (10%), Method: PREINCUBATION); “inactive; negative” (Test System: AMES SALMONELLA TYPHIMURIUM, Strain/Indicator: TA98, Metabolic Activation: RAT, LIVER, S-9, AROCLOR 1254, Method: PREINCUBATION); “inactive; negative” under setting [2]; “inactive; negative” (Test System: AMES SALMONELLA TYPHIMURIUM, Strain/Indicator: TA100, Metabolic Activation: HAMSTER, LIVER, S-9, AROCLOR 1254 (10%), Method: PREINCUBATION); “inactive; negative” (Test System: AMES SALMONELLA TYPHIMURIUM, Strain/Indicator: TA100, Metabolic Activation: HAMSTER, LIVER, S-9, AROCLOR 1254, Method: PREINCUBATION); “inactive; negative” under setting [3]. For the same molecule, the mutagenic call was “inactive; negative” (Test System: AMES SALMONELLA TYPHIMURIUM, Strain/Indicator: TA100, Metabolic Activation: RAT LIVER S-9, AROCLOR 1254, Method: PREINCUBATION); “inactive; negative” (Test System: AMES SALMONELLA TYPHIMURIUM, Strain/Indicator: TA100, Metabolic Activation: RAT LIVER S-9, PHENOBARBITAL AND BETA-NAPHTHOFLAVONE, Method: PREINCUBATION); “inactive; negative” (Test System: AMES SALMONELLA TYPHIMURIUM, Strain/Indicator: TA100, Metabolic Activation: RAT, LIVER, S-9, AROCLOR 1254 (10%), Method: PREINCUBATION); “inactive; negative” (Test System: AMES SALMONELLA TYPHIMURIUM, Strain/Indicator: TA100, Metabolic Activation: RAT, LIVER, S-9, AROCLOR 1254, Method: PREINCUBATION); “active; positive” under setting [4]; “inactive; negative” (Test System: AMES SALMONELLA TYPHIMURIUM, Strain/Indicator: TA102, Metabolic Activation: MOUSE LIVER S-9, AROCLOR 1254, Method: PREINCUBATION). Further, the mutagenic call by setting is: (Test System: AMES SALMONELLA TYPHIMURIUM, Strain/Indicator: TA102, Metabolic Activation: NONE, Method: PREINCUBATION) “inactive; negative”; (Test System: AMES SALMONELLA TYPHIMURIUM, Strain/Indicator: TA102, Metabolic Activation: RAT, LIVER, S-9, AROCLOR 1254, Method: PREINCUBATION) “inactive; negative”; (Test System: AMES SALMONELLA TYPHIMURIUM, Strain/Indicator: TA104, Metabolic Activation: MOUSE LIVER S-9, AROCLOR 1254, Method: PREINCUBATION) “inactive; negative”; (Test System: AMES SALMONELLA TYPHIMURIUM, Strain/Indicator: TA1535, Metabolic Activation: HAMSTER, LIVER, S-9, AROCLOR 1254 (10%), Method: PREINCUBATION) “inactive; negative”; (Test System: AMES SALMONELLA TYPHIMURIUM, Strain/Indicator: TA1535, Metabolic Activation: HAMSTER, LIVER, S-9, AROCLOR 1254, Method: PREINCUBATION) “inactive; negative”; (Test System: AMES SALMONELLA TYPHIMURIUM, Strain/Indicator: TA1535, Metabolic Activation: NONE, Method: PREINCUBATION) “inactive; negative”. Further, the mutagenic call was “inactive; negative” (Test System: AMES SALMONELLA TYPHIMURIUM, Strain/Indicator: TA1535, Metabolic Activation: RAT LIVER S-9, PHENOBARBITAL AND BETA-NAPHTHOFLAVONE, Method: PREINCUBATION); “inactive; negative” (Test System: AMES SALMONELLA TYPHIMURIUM, Strain/Indicator: TA1535, Metabolic Activation: RAT, LIVER, S-9, AROCLOR 1254 (10%), Method: PREINCUBATION); “inactive; negative” (Test System: AMES SALMONELLA TYPHIMURIUM, Strain/Indicator: TA1535, Metabolic Activation: RAT, LIVER, S-9, AROCLOR 1254, Method: PREINCUBATION); “inactive; negative” (Test System: AMES SALMONELLA TYPHIMURIUM, Strain/Indicator: TA1537, Metabolic Activation: HAMSTER, LIVER, S-9, AROCLOR 1254 (10%), Method: PREINCUBATION); “inactive; negative” (Test System: AMES SALMONELLA TYPHIMURIUM, Strain/Indicator: TA1537, Metabolic Activation: HAMSTER, LIVER, S-9, AROCLOR 1254, Method: PREINCUBATION); “inactive; negative” (Test System: AMES SALMONELLA TYPHIMURIUM, Strain/Indicator: TA1537, Metabolic Activation: NONE, Method: PREINCUBATION). For the same molecule, the mutagenic call runs as follows: (Test System: AMES SALMONELLA TYPHIMURIUM, Strain/Indicator: TA1537, Metabolic Activation: RAT LIVER S-9, PHENOBARBITAL AND BETA-NAPHTHOFLAVONE, Method: PREINCUBATION) “inactive; negative”; (Test System: AMES SALMONELLA TYPHIMURIUM, Strain/Indicator: TA1537, Metabolic Activation: RAT, LIVER, S-9, AROCLOR 1254 (10%), Method: PREINCUBATION) “inactive; negative”; (Test System: AMES SALMONELLA TYPHIMURIUM, Strain/Indicator: TA1537, Metabolic Activation: RAT, LIVER, S-9, AROCLOR 1254, Method: PREINCUBATION) “inactive; negative”; (Test System: E.COLI, Strain/Indicator: WP2UVRA, Metabolic Activation: NONE, Method: PREINCUBATION) “inactive; negative”; (Test System: E.COLI, Strain/Indicator: WP2UVRA, Metabolic Activation: RAT LIVER S-9, PHENOBARBITAL AND BETA-NAPHTHOFLAVONE, Method: PREINCUBATION) “inactive; negative”; (Test System: MOUSE LYMPHOMA, Strain/Indicator: L5178Y (TK+/TK-), Metabolic Activation: NONE, Method: SUSPENSION/PLATE) “active; positive”.
As for `O=C(O)[C@@H]1CS[C@H](c2ccccc2O)N1C(=O)CCSSCCC(=O)N1[C@@H](c2ccccc2O)SC[C@H]1C(=O)O`, the mutagenic call under setting [1] is “inactive; negative”; the mutagenic call under setting [3] was “inactive; negative”; the mutagenic call under setting [5] is “inactive; negative”; the mutagenic call under setting [6] is “inactive; negative”; the mutagenic call (Test System: AMES SALMONELLA TYPHIMURIUM, Strain/Indicator: TA1538, Metabolic Activation: NONE, Method: STANDARD PLATE) is “inactive; negative”; the mutagenic call (Test System: E. COLI, Strain/Indicator: WP2, Metabolic Activation: NONE, Method: STANDARD PLATE) is “inactive; negative”. Further, under “Test System: E. COLI, Strain/Indicator: WP2 UVRA, Metabolic Activation: NONE, Method: STANDARD PLATE”, the mutagenic call is “inactive; negative”.
On to `C1CCCCCC2OC2CCCC1` (stereo unspecified), for which the mutagenic call is, setting by setting: under setting [3], “inactive; negative”; under setting [4], “inactive; negative”; under setting [5], “inactive; negative”; (Test System: AMES SALMONELLA TYPHIMURIUM, Strain/Indicator: TA1535, Metabolic Activation: RAT, LIVER, S-9, AROCLOR 1254, Method: STANDARD PLATE) “inactive; negative”; (Test System: UDS RAT HEPATOCYTES, Strain/Indicator: THY INCORP, Metabolic Activation: NONE) “inactive; negative”.
On to `CCCN(C(=O)CCCl)c1snc2ccccc12`, for which the mutagenic call was “inactive; negative” under setting [1]; “inactive; negative” under setting [2]; “inactive; negative” under setting [3]; “inactive; negative” (Test System: AMES SALMONELLA TYPHIMURIUM, Strain/Indicator: TA100, Metabolic Activation: S-9, Method: STANDARD PLATE); “active; positive” under setting [5]; “active; positive” (Test System: AMES SALMONELLA TYPHIMURIUM, Strain/Indicator: TA1535, Metabolic Activation: S-9, Method: STANDARD PLATE). Besides, the mutagenic call was “inactive; negative” under setting [6] and “inactive; negative” (Test System: AMES SALMONELLA TYPHIMURIUM, Strain/Indicator: TA1537, Metabolic Activation: S-9, Method: STANDARD PLATE).
